Reference: US10717734B2, “Indole and azaindole haloallylamine derivative inhibitors of lysyl oxidases and uses thereof” (PHARMAXIS LTD., priority 2016, dated 2020)
Where a name gives a salt, the structure may show the parent alone.

Columns and labels:
[1] = test system: primary fibroblasts from confirmed cases of IPF (fibroblastic foci); assay: Collagen cross-link formation in in vitro fibroblastic foci model of IPF; format: cell-based, human; conditions: TGF-β1 stimulated foci, six weeks culture with inhibitor
Source text: Reduction of Collagen Cross-Link Formation in an in vitro Fibroblastic Foci Model of IPF
The lung tissue of patients with idiopathic pulmonary fibrosis (IPF) is characterised by dense collections of myofibroblasts and extracellular matrix (ECM) termed ‘fibroblastic foci’. Using a novel in vitro model of fibroblastic foci (Jones et al., AJRCCM 191; 2015:A4912) the formation of lysyl oxidase (LOX) mediated collagen cross-links and the effects of the nonselective LOX inhibitor β-aminopropionitrile (BAPN) as well lysyl oxidase like-2 (LOXL2)-selective inhibitors were investigated.
Cultures of primary fibroblasts were grown out from clinical diagnostic biopsies of fibrotic lung and stored in liquid nitrogen. […]
To quantify collagen cross-links (Robins Biochem Soc Trans 2007; 35(5): 849-852; Saito et al Anal. Biochem. 1997; 253: 26-32; Sims, Avery & Bailey Methods in Molecular Biology 2000; vol 139: 11-26), cultures were treated with potassium borohydride to stabilise the reducible immature cross-links, and hydrolysed in 6N HCl at 100° C. for 16 hr. Total collagen content was assessed by hydroxyproline assay. Immature cross-links were assessed by LC/MS/MS and mature pyridinoline cross-links by ELISA. Cross-link data is expressed as moles of cross-link per mole collagen. […]

Bovine LOX = Bovine LOX (Bos taurus (Bovine), UniProt P33072); assay: LOX inhibition, peroxidase-coupled Amplex Red amine oxidase assay; format: biochemical; conditions: 30 min preincubation at 37° C., putrescine substrate
Method in brief: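 Bovine LOX in 1.2 M urea, 50 mM sodium borate pH 8.2 […]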

Recombinant human MAO-B = Recombinant human MAO-B (Homo sapiens (Human), UniProt P27338); assay: Human recombinant MAO-B inhibition; format: biochemical; conditions: benzylamine 100 μM
Method in brief: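 Recombinant human MAO-B (0.06 mg/mL) was the enzyme source, with benzylamine substrate at 100 μM. Otherwise run as for the human SSAO/VAP-1 assay.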

[2] = test system: CCl4 induced liver fibrosis; assay: CCl4 induced liver fibrosis model; format: in vivo, rat; conditions: 0.1-100 mg/Kg
Protocol: Inhibition of CCl4 Induced Liver Fibrosis
An analysis of the use of LOXL2 inhibitors to treat inflammatory/fibrotic diseases is performed through the use of a CCl4 induced liver fibrosis model. Liver injury is frequently followed by complete parenchymal regeneration due to regenerative potency of hepatocytes. Continuous liver injury due to the administration of CCl4 leads to extracellular matrix accumulation, accompanied by recurrent hepatocyte necrosis, inflammation, and regenerative processes, causing liver fibrosis and consequently liver cirrhosis (see Natsume, M, et al., Attenuated liver fibrosis and depressed serum albumin levels in carbon tetrachloride-treated IL-6-deficient mice. J. Leukoc. Biol., 1999, 66, 601-608 also See Yao, Q, Y, et al. Inhibition by curcumin of multiple sites of the transforming growth factor-beta1 signalling pathway ameliorates the progression of liver fibrosis induced by carbon tetrachloride in rats. BMC Complement Altern Med. 2012 Sep. 16; 12(1):156.)
Rats are administered orally with CCl4 at a concentration of 0.25 μL/g in olive oil, 3 times per week for 6 weeks. Compound 22 is given 0.1-100 mg/Kg throughout the period of the experimental procedure or only 3 weeks after CCl4 administration and then throughout the entire study. […]

[3] = target: Human recombinant SSAO/VAP-1 (Homo sapiens (Human), UniProt Q16853); assay: Human recombinant SSAO/VAP-1 amine oxidase inhibition; format: biochemical; conditions: 30 min preincubation at 37° C., 600 μM benzylamine
Method in brief: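 Purified SSAO/VAP-1 (residues 34-763, expressed in CHO Lec 8 cells; 0.25 μg/mL) preincubated 30 min at 37° C with compound in 0.1 M sodium phosphate pH 7.4. Reaction mix of 600 μM benzylamine, 120 μM Amplex Red and 1.5 U/mL HRP added; fluorescence (ex 565/em 590 nm) read every 2.5 min for 30 min; IC50 from kinetic slopes over 4-11 point curves.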

Human LOXL2 = Human LOXL2 (Homo sapiens (Human), UniProt Q9Y4K0); assay: LOXL2 inhibition, peroxidase-coupled Amplex Red amine oxidase assay; format: biochemical; conditions: 30 min preincubation at 37° C., putrescine substrate
Method in brief: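 Enzyme preincubated 30 min at 37 °C with compound (11-point curve) in 1.2 M urea, 50 mM borate pH 8.2 plus 1 μM mofegiline and 0.5 mM pargyline; putrescine at twice KM (10 mM for LOXL2), Amplex Red and HRP added. Fluorescence (565/590 nm) read every 2.5 min for 30 min; IC50 from kinetic slopes.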

Chain of Human recombinant SSAO/VAP-1 (Q16853 34-763): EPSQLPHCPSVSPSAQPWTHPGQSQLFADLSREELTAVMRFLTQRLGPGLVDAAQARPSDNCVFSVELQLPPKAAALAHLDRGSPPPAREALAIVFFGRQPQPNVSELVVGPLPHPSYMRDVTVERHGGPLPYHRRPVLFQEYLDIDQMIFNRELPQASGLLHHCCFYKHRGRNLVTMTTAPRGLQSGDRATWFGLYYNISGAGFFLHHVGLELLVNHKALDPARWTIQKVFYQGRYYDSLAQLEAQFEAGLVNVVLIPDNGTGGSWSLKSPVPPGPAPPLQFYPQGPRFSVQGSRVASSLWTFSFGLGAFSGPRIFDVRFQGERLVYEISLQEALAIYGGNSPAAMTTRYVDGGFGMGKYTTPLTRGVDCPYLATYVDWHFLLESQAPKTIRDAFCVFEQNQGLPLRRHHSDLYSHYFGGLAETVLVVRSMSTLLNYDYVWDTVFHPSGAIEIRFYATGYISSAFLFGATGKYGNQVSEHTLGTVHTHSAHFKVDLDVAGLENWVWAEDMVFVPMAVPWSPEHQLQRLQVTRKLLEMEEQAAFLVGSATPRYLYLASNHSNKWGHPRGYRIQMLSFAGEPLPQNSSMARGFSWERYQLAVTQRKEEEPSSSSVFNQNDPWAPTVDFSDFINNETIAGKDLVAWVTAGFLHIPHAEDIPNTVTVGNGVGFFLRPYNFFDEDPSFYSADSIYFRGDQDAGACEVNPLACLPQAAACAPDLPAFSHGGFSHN
Chain of Recombinant human MAO-B (P27338 whole entry): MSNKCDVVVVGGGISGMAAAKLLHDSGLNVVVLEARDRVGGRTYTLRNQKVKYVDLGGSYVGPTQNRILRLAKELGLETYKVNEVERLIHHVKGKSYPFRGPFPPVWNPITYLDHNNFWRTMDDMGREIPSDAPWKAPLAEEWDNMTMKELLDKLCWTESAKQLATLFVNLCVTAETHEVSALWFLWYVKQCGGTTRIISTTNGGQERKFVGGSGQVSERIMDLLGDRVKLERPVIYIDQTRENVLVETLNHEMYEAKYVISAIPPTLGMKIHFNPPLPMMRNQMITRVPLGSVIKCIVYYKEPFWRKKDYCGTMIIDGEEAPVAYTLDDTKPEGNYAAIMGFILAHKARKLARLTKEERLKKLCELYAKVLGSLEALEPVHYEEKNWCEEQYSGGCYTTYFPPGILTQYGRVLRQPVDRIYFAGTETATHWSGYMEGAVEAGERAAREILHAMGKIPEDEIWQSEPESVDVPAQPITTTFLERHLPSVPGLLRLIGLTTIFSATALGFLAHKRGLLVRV
Chain of Human LOXL2 (Q9Y4K0 26-774): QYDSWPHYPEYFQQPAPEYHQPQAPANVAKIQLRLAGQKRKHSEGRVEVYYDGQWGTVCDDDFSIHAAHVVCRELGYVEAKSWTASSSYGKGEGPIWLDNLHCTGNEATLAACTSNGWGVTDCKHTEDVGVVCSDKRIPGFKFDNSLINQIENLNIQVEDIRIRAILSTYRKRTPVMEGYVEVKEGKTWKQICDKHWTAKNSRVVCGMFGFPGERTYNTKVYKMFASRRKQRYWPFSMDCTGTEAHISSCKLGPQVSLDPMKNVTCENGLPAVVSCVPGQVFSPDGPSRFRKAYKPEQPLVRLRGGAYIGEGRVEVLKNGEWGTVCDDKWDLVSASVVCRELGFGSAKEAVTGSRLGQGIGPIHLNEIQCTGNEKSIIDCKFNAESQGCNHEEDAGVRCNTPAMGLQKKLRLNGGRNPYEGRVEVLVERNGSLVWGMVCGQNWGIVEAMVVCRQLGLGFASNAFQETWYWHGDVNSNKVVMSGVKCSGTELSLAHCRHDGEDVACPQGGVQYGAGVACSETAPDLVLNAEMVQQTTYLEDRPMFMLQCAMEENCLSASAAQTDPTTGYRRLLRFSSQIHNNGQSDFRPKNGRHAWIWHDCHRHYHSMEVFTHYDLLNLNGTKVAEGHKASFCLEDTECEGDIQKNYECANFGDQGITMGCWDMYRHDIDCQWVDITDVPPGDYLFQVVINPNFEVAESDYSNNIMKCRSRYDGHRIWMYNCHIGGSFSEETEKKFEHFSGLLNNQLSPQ
Chain of Bovine LOX (P33072 170-418): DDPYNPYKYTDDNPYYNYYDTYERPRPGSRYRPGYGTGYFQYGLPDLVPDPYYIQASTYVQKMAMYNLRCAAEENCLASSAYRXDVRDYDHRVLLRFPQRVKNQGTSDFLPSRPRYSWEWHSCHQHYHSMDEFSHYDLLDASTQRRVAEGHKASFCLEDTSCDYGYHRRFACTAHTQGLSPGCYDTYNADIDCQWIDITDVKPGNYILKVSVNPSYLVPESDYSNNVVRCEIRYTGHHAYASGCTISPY

SMILES | collagen cross-link formation [1] | IC50 (Bovine LOX) [nM] | IC50 (Recombinant human MAO-B) [nM] | inhibition of liver collagen by hydroxyproline analysis ([2]; CCl4 model, statistically significant) [%] | reduction of liver fibrosis by sirius red staining with quantification ([2]; rats, oral CCl4 3 times per week for 6 weeks, versus vehicle-treated group) | IC50 [3] [nM] | IC50 (Human LOXL2) [nM]
N#CCCN [BAPN, β-aminopropionitrile] | reduced cross-link formation in a concentration dependent manner | – | – | – | – | – | –
CC(C)c1c(Cc2ccc(S(C)(=O)=O)nc2)c2ncccc2n1C/C(F)=C/CN [Compound 22, trihydrochloride] | – | > 300 | > 3000 | > 30 | up to 50% | > 3000 | < 300
Cc1ncc2c(n1)c(Cc1ccc(S(=O)(=O)N(C)C)cc1)c(C)n2C/C(F)=C/CN [Compound 39, (Z)-4-((5-(4-amino-2-fluorobut-2-en-1-yl)-2,6-dimethyl-5H-pyrrolo[3,2-d]pyrimidin-7-yl)methyl)-N,N-dimethylbenzenesulfonamide dihydrochloride] | – | > 300 | > 3000 | – | – | > 3000 | < 300
Cc1ccc2c(n1)c(Cc1ccc(S(C)(=O)=O)cn1)c(C)n2C/C(F)=C/CN [Compound 14, (Z)-4-(2,5-dimethyl-3-((5-(methylsulfonyl)pyridin-2-yl)methyl)-1H-pyrrolo[3,2-b]pyridin-1-yl)-3-fluorobut-2-en-1-amine trihydrochloride] | – | > 300 | > 3000 | – | – | > 3000 | < 300
Cc1cc2c(cn1)c(Cc1ccc(S(C)(=O)=O)cc1)c(C)n2C/C(F)=C/CN [Compound 36, (Z)-4-(2,6-dimethyl-3-(4-(methylsulfonyl)benzyl)-1H-pyrrolo[3,2-c]pyridin-1-yl)-3-fluorobut-2-en-1-amine dihydrochloride] | – | > 300 | > 3000 | – | – | > 3000 | < 300
CC(O)c1c(Cc2ccc(S(=O)(=O)N(C)C)cc2)c2ncccc2n1C/C(F)=C/CN (centres unmarked) [Compound 29, (Z)-4-((1-(4-amino-2-fluorobut-2-en-1-yl)-2-(1-hydroxyethyl)-1H-pyrrolo[3,2-b]pyridin-3-yl)methyl)-N,N-dimethylbenzenesulfonamide dihydrochloride] | – | > 300 | > 3000 | – | – | > 3000 | < 300
